{"source": "patent US8142801B2", "about": "“Pesticidal compositions and methods of use thereof” (EcoBlend, LLC, priority 2009, dated 2012)", "key": {"Tick": {"test_system": "Tick", "test": "Tick repellency on skin", "assay_type": "in vivo", "conditions": "on its own"}, "Fire ants": {"test_system": "Fire ants", "test": "Spray test on fire ants", "assay_type": "in vivo, Red Imported species", "experimental": "The time various compositions take to both knock down (KD) and kill (TM) various pests was determined. As a control, results were compared using sodium lauryl sulfate by itself, and with the various fatty acids.\nThe tests were conducted for a maximum observation time of 30 minutes, after which time, the test, and all observations, was stopped.\nProtocol: Fire ants (Red Imported species) were directly sprayed while traveling on the ground. The average amount of material per area was calculated. The amount of material to kill the Fire Ant was determined."}}, "data": [{"compound": "CCCCCCCCCCCCOS(=O)(=O)[O-].[Na+]", "note": "[sodium lauryl sulfate]", "values": [{"measurement": "Repellency to ticks", "setting": "Tick", "value": "not observed to be particularly repellent"}, {"measurement": "Amount of aqueous 10% SLS mixture to kill the fire ant", "setting": "Fire ants", "value": "around 20 ml"}]}]}
